In article PMC10135567, “New Indole-3-Propionic Acid and 5-Methoxy-Indole Carboxylic Acid Derived Hydrazone Hybrids as Multifunctional Neuroprotectors” (Antioxidants, 2023):
“Also recorded” adds a separate entry of the source.

Legend:
[1] = tested on: isolated rat-brain synaptosomes; assay: 6-OHDA-induced neurotoxicity in isolated rat synaptosomes, synaptosomal viability; format: cell-based; details: 10 µM pre-incubation 30 min, then 150 µM 6-OHDA 1 h; for viability at 10 µM: Rattus norvegicus, read-out: synaptosomal viability (SV) preserved, as compared to 6-OHDA
Method: This neurotoxicity model was based on the metabolism and auto-oxidation of 6-hydroxy dopamine responsible for the reactive oxygen species and quinones generation, ultimately leading to neurotoxicity and neurodegeneration. The experiment was performed by pre-incubation of the synaptosomes with 10 µM of the compounds for 30 min, followed by the addition of 150 µM 6-hydroxy dopamine for induction of neurotoxicity. After 1 h, they were centrifuged twice for 1 min at 15,000 × g. After the second wash, the precipitates were resolved with buffer B and glucose.

[2] = Fe(II)-induced deoxyribose degradation assay; format: biochemical; details: 80 µM, 2-deoxyribose 0.5 mM, 0.1 mM FeCl2; for absorbance ratio, % of the controls (deoxyribose degradation): lower = stronger antioxidant
Method: The lipid peroxidation assay and a modification of the deoxyribose-degradation assay were used. Two types of measurement compositions in phosphate buffer (PB–K2HPO4/KH2PO4, pH 7.4) were prepared for both tests: (i) samples, containing the biologically relevant molecules (lecithin emulsion or deoxyribose), iron, and the tested hydrazones at the concentrations indicated below the figures; and (ii) controls, in which the tested hydrazones were omitted. The data for the sample activity were presented as a percentage of the control measurement.
The deoxyribose (0.5 mM) damage was induced by adding FeCl2 (0.1 mM). The measurement compositions were incubated at 37 °C for 30 min. The next step comprised adding 0.5 mL of 2.8% trichloroacetic acid and 0.5 mL of thiobarbituric acid. Then, the samples were heated in boiling water for 20 min, and their absorbance was estimated at 532 nm (characteristic band for the generated chromophore) via Shimadzu UV-1601 UV-vis spectrophotometer.

[3] = O-phenanthroline Fe(II) chelation test; format: physicochemical; details: 200 µM compound, FeCl2
Method: The Fe (II)-chelating activity of the tested hydrazones was determined by the O-phenanthroline method. A total of 1 mL sample solutions of 50 mM PB pH 7 contained 0.2 mM O-phenanthroline and 0.05 mM FeCl2 and 0.2 mM hydrazone. In the controls, the tested compounds were omitted. Absorbance was measured at 515 nm via GENESYS 50 UV-VIS spectrophotometer after incubation for 5 min at 37 °C. The data for the sample activity were presented as a percentage of the control measurement. Absorbance spectra of all the samples, the control, and the measurement compositions containing the tested hydrazones and Fe(II) at the concentrations used in the samples were measured.
To explain the results of both systems of Fe(II)-induced oxidative damage, we studied the potency of the tested compounds to chelate-iron (Fe(II)). This was studied by spectrophotometric determination of free iron (Fe(II)) using the ortho-phenanthroline test, as 1,10-phenantroline reacts rapidly with Fe(II) ions in weakly acidic media, generating an orange–red complex (ferroin) with characteristic absorbance spectra (molar absorptivity 1.10.104 (α = 0.20) at ~max 512 nm and a molar ratio 3:1 (R: Fe(II))). The generated complex was stable, and the bound Fe(II) was resistant to oxidation. Lower absorbance of the reaction mixture indicated higher Fe^2+-chelating activity.

[4] = Superoxide radical scavenging, xanthine/xanthine oxidase/NBT system; format: biochemical; details: for decrease of NBT reduction as compared to the controls: 100 µM (highest tested concentration); for absorbance ratio (NBT reduction, % of control): 1, 10, 50 and 100 µM; for increase of absorbance ratio as compared to the controls: 100 µM
Method: The 1 mL cuvette for the control contained 1 mM xanthine, 20 µL xanthine oxidase (100 IU/L), and 0.04 mM NBT [43, 44]. In the sample compositions, the tested hydrazones at different concentrations were added. All measurement compositions were incubated at 37 °C, and the absorbance was determined spectrophotometrically at 560 nm via Shimadzu UV-1601 UV-vis spectrophotometer.
The potential capability of the investigated compounds to prevent the superoxide-anion radical-induced NBT reduction was investigated spectrophotometrically by xanthine-oxidase assay. The assay was carried out at the final concentration of the tested compounds, at 1, 10, 50, and 100 µM.

bEnd3 monolayer = assay: Permeability assay, static BBB model of bEnd3 monolayer (streptavidin-HRP passage); format: cell-based, mouse; details: 90 min
Method: To evaluate the compounds’ effect on a BBB model, bEnd3 endothelial cells were seeded on polycarbon (PC) cell-culture inserts with 0.4 µm pore size (cat. no. 1CH3.1, BRAND GMBH + CO KG, Wertheim, Germany) and a density of 5.6 × 10^3 cells/insert. The inserts were placed in a 24-well plate containing 1 mL of cell-culture medium. […] On the second day of incubation, the cell-culture medium was refreshed. To ensure 100% confluence, the inserts were evaluated for medium leakage before the experiment. […] Following the incubation, the inserts were placed in a new 24-well plate containing 1 mL Phenol Red free–DMEM (cat. no. D1145, Sigma-Aldrich Co. LLC, St. Louis, MO, USA) without serum. In the upper chamber, a solution of streptavidin, conjugated with horse-radish peroxidase (HRP, cat. no. SA00001-0, Proteintech, Rosemont, Illinois, USA) (1:1000) in serum-free phenol red medium was added. The cells were further incubated for 5 min at 37 °C and 5% CO2, after which the inserts were removed. The remaining medium in the 24-well plate was collected and vortexed briefly, and 3 × 50 µL aliquots were transferred into a 96-well plate. A total of 50 µL TMB Signal+ substrate solution (BUF054A, Bio-Rad, Hercules, CA, USA) was added to each well and incubated for 5 min at 37 °C. The HRP converted the TMB to a blue-colored product. To stop the reaction, 50 µL of 0.2 N H2SO4 was added that caused the blue color to turn yellow. […] Each condition was tested at least twice.
To further explore the neuroprotective effect of the compounds, we tested their ability to influence the BBB and its permeability, utilizing a static BBB model with brain microvascular endothelial cell line bEnd3 [36], as it would be essential for the compounds to pass the BBB and protect the neuronal cells. In addition to their endothelial origin, the bEnd3 cells were strongly connected by specific proteins (ZO-1, claudin-5) forming tight junctions (TJs). This was crucial for preventing unregulated […] transport and sustaining the apical–basal polarity of the monolayer. Here, we determined any changes in the permeability of the BBB by imitating an endothelial barrier via a static BBB model of bEnd3 cells (Figure 11a,c,e). This allowed us to determine the possibility of drug passage. It should be noted, that even though drug passage was desirable, any irreversible modifications of the cell monolayer and the TJs were considered threatening. Therefore, in parallel to the permeability tests, the bEnd3 cells were stained for TJ-formation and ZO-1 distribution (Figure 11b,d,f).

Row | Compound | viability at 10 µM [1] [%] | pro-oxidant effect above the controls (deoxyribose degradation) [2] | absorbance at 515 nm compared to the controls (Fe(II) chelation) [3] | decrease of NBT reduction as compared to the controls [4] | change of permeability of bEnd3 monolayer vs. control (in words) (bEnd3 monolayer; 50 µM) | increase in the permeability of bEnd3 monolayer (bEnd3 monolayer; 10 µM) [times] | absorbance ratio, % of the controls (deoxyribose degradation) [2] | change of permeability of bEnd3 monolayer vs. control (in words) (bEnd3 monolayer; 10 µM) | NBT reduction decreased to ([4]; 10 µM) [%] | absorbance ratio (NBT reduction, % of control) [4] | increase of absorbance ratio as compared to the controls [4] [%] | influence on the permeability of the monolayer (in words) (bEnd3 monolayer; 10 or 50 µM) | synaptosomal viability (SV) preserved, as compared to 6-OHDA [1] [%]
1 | COc1cc(C=NNC(=O)CCc2c[nH]c3ccccc23)ccc1O [Compound 3d, N′-(4-Hydroxy-3-methoxybenzylidene)-3-(1H-indol-3-yl)propanehydrazide] | 33 | about 10% | statistically identical absorbance values at 515 nm, as compared to the controls | less than 15% | increased the permeability |  |  |  |  |  |  |  | 
2 | COc1cc(C=NNC(=O)CCc2c[nH]c3ccccc23)cc(OC)c1O [Compound 3f, N′-(4-Hydroxy-3,5-dimethoxybenzylidene)-3-(1H-indol-3-yl)propanehydrazide] | 44 |  | statistically identical absorbance values at 515 nm, as compared to the controls | less than 15% | increased the permeability | 0.5 |  |  |  |  |  |  | 
3 | COc1ccc2[nH]c(C(=O)NN=Cc3cccc(O)c3O)cc2c1 [Compound 5a, N′-(2,3-Dihydroxybenzylidene)-5-methoxy-1H-indole-2-carbohydrazide] | 56 |  | identical absorbance values, as compared to the controls | less than 15% | reduced the permeability |  | about 50% | passage through the BBB model was induced |  |  |  |  | 
4 | COc1ccc2[nH]c(C(=O)NN=Cc3ccc(O)c(O)c3)cc2c1 [Compound 5b, N′-(3,4-Dihydroxybenzylidene)-5-methoxy-1H-indole-2-carbohydrazide] | 44 |  | statistically identical absorbance values at 515 nm, as compared to the controls |  | reduced the permeability |  |  | passage through the BBB model was induced | 20 |  |  |  | 
5 | COc1ccc2[nH]c(C(=O)NN=Cc3ccc(O)cc3O)cc2c1 [Compound 5c, N′-(2,4-Dihydroxybenzylidene)-5-methoxy-1H-indole-2-carbohydrazide] | 44 |  | statistically significant changes |  | reduced the permeability |  | did not induce a modulating effect |  |  | did not influence the estimated absorbance ratio at any of the tested concentrations |  |  | 
6 | COc1ccc2[nH]c(C(=O)NN=Cc3ccc(O)c(OC)c3)cc2c1 [Compound 5d, N′-(4-Hydroxy-3-methoxybenzylidene)-5-methoxy-1H-indole-2-carbohydrazide] | 44 |  | statistically identical absorbance values at 515 nm, as compared to the controls |  |  |  | did not induce a modulating effect | decreased it |  |  | 23 |  | 
7 | COc1ccc(C=NNC(=O)c2cc3cc(OC)ccc3[nH]2)c(O)c1 [Compound 5e, N′-(2-Hydroxy-4-methoxybenzylidene)-5-methoxy-1H-indole-2-carbohydrazide] | 56 |  | statistically significant changes; also recorded: much higher absorbance values than the controls |  |  |  | did not induce a modulating effect |  |  |  | 40 |  | 
8 | COc1ccc2[nH]c(C(=O)NN=Cc3cc(OC)c(O)c(OC)c3)cc2c1 [Compound 5f, N′-(4-Hydroxy-3,5-dimethoxybenzylidene)-5-methoxy-1H-indole-2-carbohydrazide] | 56 |  | statistically identical absorbance values at 515 nm, as compared to the controls |  |  |  |  | decreased it |  |  | 8 |  | 
9 | COc1ccc2[nH]cc(CCNC(C)=O)c2c1 [Melatonin] | 78 |  |  |  |  |  |  |  |  |  |  | did not influence the permeability | 
10 | N′-(4-Hydroxy-2-methoxybenzylidene)-3-(1H-indol-3-yl)propanehydrazide [Compound 3e] |  | about 10% | statistically significant changes; also recorded: much higher absorbance values than the controls |  | increased the permeability |  |  |  |  | approximately 135% |  |  | 33
